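Exposure lasted 48 hours, with cells grown in 96-well plates and compounds tested at five concentrations. TGI denotes the concentration required for complete inhibition of growth.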
How the values were obtained:
Test in all cases: NCI tumour cell line growth inhibition, 48 h
HCC-2998 colon = system: HCC-2998 colon
HCT-15 colon = system: HCT-15 colon
HOP-62 NSCLC = system: HOP-62 NSCLC
HS 578T breast = system: HS 578T breast
HT29 colon = system: HT29 colon
IGROV1 ovarian = system: IGROV1 ovarian
MALME-3M melanoma = system: MALME-3M melanoma
NCI-H226 lung = system: NCI-H226 lung
NCI-H460 lung = system: NCI-H460 lung
OVCAR-8 ovarian = system: OVCAR-8 ovarian
PC-3 prostate = system: PC-3 prostate
SF-295 CNS = system: SF-295 CNS
SN12C renal = system: SN12C renal
SNB-75 CNS = system: SNB-75 CNS
T-47D breast = system: T-47D breast
UACC-257 melanoma = system: UACC-257 melanoma
A498 renal = system: A498 renal
MCF7 breast = system: MCF7 breast
SK-MEL-2 melanoma = system: SK-MEL-2 melanoma

Structure (SMILES)	TGI (HCC-2998 colon) [µM]	TGI (HCT-15 colon) [µM]	TGI (HOP-62 NSCLC) [µM]	TGI (HS 578T breast) [µM]	TGI (HT29 colon) [µM]	TGI (IGROV1 ovarian) [µM]	TGI (MALME-3M melanoma) [µM]	TGI (NCI-H226 lung) [µM]	TGI (NCI-H460 lung) [µM]	TGI (OVCAR-8 ovarian) [µM]	TGI (PC-3 prostate) [µM]	TGI (SF-295 CNS) [µM]	TGI (SN12C renal) [µM]	TGI (SNB-75 CNS) [µM]	TGI (T-47D breast) [µM]	TGI (UACC-257 melanoma) [µM]	TGI (A498 renal) [µM]	TGI (MCF7 breast) [µM]	TGI (SK-MEL-2 melanoma) [µM]
O=C(O)c1ccc(Nc2nc3cc(C(F)(F)F)ccc3nc2-c2ccccc2)cc1	34.4	30.6	43.1	49.4	28.2	35.9	> 100	69.6	75.7	> 100	40.6	27.9	97.6	63.9	35.1	> 100	–	–	–
C=C1CC(COc2ccc3c(C)cc(=O)oc3c2)(c2ccccc2)OC1=O (configuration not stated)	10.1	3.62	31	> 27	2.96	3.57	1.9	15.7	23.5	5.57	5.78	23	21.1	19.2	–	3.9	14.1	2.71	3.65
N#Cc1c(N)c(C#N)c2c(c1-c1ccc(Cl)cc1)COc1ccccc1-2	54.9	> 100	33.5	–	40.3	66.5	58.1	98.9	> 100	–	42.6	–	31	–	58.2	> 100	37.7	> 100	60.1
COc1ccc(/C=C2/CCS(=O)(=O)c3ccc(C)cc3C2=O)cc1OC	19.6	20.3	> 100	73.2	27.6	22.4	–	70.8	25.8	48.1	58.9	36	73.9	57.2	45.1	25.4	–	> 100	60.9
COc1ccc2c(c1)C(N)=C(Cc1ccncc1)C2=O	–	> 100	> 100	> 100	> 100	> 100	> 100	–	> 100	> 100	> 100	> 100	> 100	> 100	> 100	> 100	> 100	> 100	> 100
CN(C)CCCNC(=O)c1cc(NC(=O)c2cc(NC(=O)[C@@H]3C[C@H]3C(=O)Nc3cc(C(=O)Nc4cc(C(=O)NCCCN(C)C)n(C)c4)n(C)c3)cn2C)cn1C	> 100	–	> 100	–	> 100	> 100	> 100	> 100	> 100	> 100	> 100	> 100	> 100	> 100	–	> 100	–	> 100	> 100
CCN(CC)C(=S)SS(=O)(=O)c1ccccc1[N+](=O)[O-]	> 100	> 100	> 65.8	> 88.7	50.4	> 100	22.2	> 93.8	> 100	> 56.9	> 100	> 100	56.6	> 100	> 100	> 60.6	> 100	–	> 100
CN(C)c1ccc(C2ON=C(c3ccccc3)N2C23CC4CC(CC(C4)C2)C3)cc1 (configuration not stated)	> 10	> 10	> 10	> 10	> 10	> 10	> 10	> 10	> 10	> 10	> 10	> 10	> 10	> 10	> 10	> 10	> 10	–	> 10
CCOC(=O)N1[C@@H]2CCC[C@@H]2C(=O)[C@@H]2CCC[C@@H]21	> 100	> 100	> 100	> 100	> 100	> 100	–	> 100	> 100	> 100	> 100	–	> 100	> 100	> 100	> 100	> 100	–	> 100
O=C(O)CCC(NC(=O)c1ccc(CNc2nc3ccccc3nc2C(=O)O)cc1)C(=O)O (configuration not stated)	–	> 100	> 100	> 100	> 100	> 100	> 100	> 100	–	> 100	> 100	> 100	> 100	> 100	–	> 100	> 100	> 100	> 100
COc1ccc2nc3n(c2c1)C(c1c(Cl)cccc1Cl)SC3 (configuration not stated)	> 100	> 100	> 100	–	–	> 100	–	> 100	> 100	> 100	> 100	> 100	> 100	> 100	> 100	> 100	> 100	> 100	> 100
N#CCCN(CCC#N)c1ccc(C(N=Nc2ccc(Cl)cc2)=Nc2ccc(F)cc2)cc1	> 100	> 100	> 100	> 100	> 100	> 100	–	> 100	> 100	> 100	> 100	> 100	> 100	> 100	> 100	> 100	> 100	> 100	–
COc1ccc(N2C(=O)/C(=C\c3cccc(Oc4ccccc4)c3)SC2c2ccccc2)cc1 (configuration not stated)	> 100	> 100	> 100	> 100	–	–	> 100	> 100	> 100	> 100	–	> 100	> 100	–	> 100	> 100	> 100	> 100	> 100
O=C(c1ccccc1)c1c(CC(O)c2ccccc2)n(C(=O)c2ccccc2)c2ccccc12 (configuration not stated)	> 100	> 100	> 100	–	> 100	> 100	> 100	> 100	> 100	> 100	–	> 100	–	58.2	–	> 100	–	–	> 100
COc1ccc(-c2nc(-c3cnccn3)n(COCCO)n2)cc1	> 100	> 100	> 100	–	> 100	> 100	–	–	> 100	> 100	> 100	> 100	> 100	–	> 100	> 100	–	> 100	–
COc1ccc(CNC(=O)[C@H](Cc2ccc(O)cn2)NC(C)=O)cc1	> 100	> 100	> 100	> 100	> 100	> 100	–	> 100	> 100	–	> 100	> 100	> 100	–	> 100	> 100	> 100	> 100	> 100
Nc1c(N2CCCCC2)c(=O)nc2[nH]/c(=C\c3ccccc3)c(=O)n12	> 100	> 100	–	> 100	> 100	> 100	> 100	> 100	> 100	> 100	–	> 100	> 100	> 100	> 100	> 100	> 100	> 100	–
CC[C@@H](/C=C\CCC1(C[C@@H](N)CCC=C(C)C)OCCO1)O[Si](C(C)C)(C(C)C)C(C)C	26	35.4	48.2	52.4	32	30.6	–	34.2	34.9	26.4	29.6	37.4	31.6	34.6	48.7	36.6	32.4	30.2	31.7
CC(=O)Oc1c2oc3cc(O)c(O)cc3c2c(OC(C)=O)c2oc3cc(O)c(O)cc3c12	40.7	72.3	35.9	36.4	70.9	91.1	> 100	39.2	32.7	50.2	56.9	30.3	58.6	57.6	–	38.8	–	–	42.1
CN1C(=O)C23CCCCC2CC1(c1ccccc1)S3 (configuration not stated)	–	> 100	> 100	> 100	> 100	> 100	> 100	> 100	–	> 100	> 100	> 100	> 100	–	> 100	54.5	> 100	> 100	> 100
CC(=O)O[C@@H]1O[Si](C(C)(C)C)(C(C)(C)C)[C@H](C)[C@H]1C	> 100	> 100	> 100	–	55.6	> 100	90.1	> 100	–	> 100	> 100	> 100	> 100	> 100	> 100	> 100	> 100	83	> 100
O=C(O)CC1CC=C[C@H]2c3cc4c(cc3C(=O)NC12)OCO4 (some centres not stated)	> 75	> 75	> 75	–	–	> 75	> 75	> 75	> 75	> 75	–	> 75	> 75	> 75	–	> 75	–	–	–
Cc1cc(C)n(C(=O)CSc2nnc(SCC(=O)n3nc(C)cc3C)s2)n1	> 100	> 100	> 100	89.3	–	–	–	> 100	> 100	> 100	> 100	> 100	> 100	> 100	> 100	> 100	> 100	> 100	–
O=C1CN(c2ccc(Cl)cc2)C(=O)CN1NCNN1CC(=O)N(c2ccc(Cl)cc2)CC1=O	> 100	> 100	> 100	> 100	> 100	> 100	> 100	–	> 100	> 100	> 100	> 100	> 100	> 100	–	> 100	> 100	> 100	–
COc1ccc(C[C@H](N)C(=O)N2C[C@@H](CO)C[C@@H](n3cnc4c(N(C)C)ncnc43)C2)cc1	–	> 100	> 100	–	> 100	> 100	> 100	–	> 100	> 100	–	> 100	–	–	–	> 100	–	–	> 100
Cc1cc(C)n(CN(Cn2nc(C)cc2C)c2ccccc2)n1	–	50.2	66.8	> 100	35.6	95.2	52.7	–	> 100	56	> 100	> 100	98.7	–	> 100	61	> 100	68.1	44.6
CCOC(=O)c1[nH]c2nc(SC)nc(Nc3ccccc3Cl)c2c1N	> 100	> 100	41.3	61.8	47.1	86.2	67	70.2	41.1	36.5	37.1	51.5	> 100	38.4	33.9	> 100	55.9	–	> 100
CC(C)(C)NC(=O)C12C3C4C1C1C2C3C41C(=O)NC(C)(C)C (configuration not stated)	> 100	> 100	> 100	> 100	> 100	> 100	–	–	> 100	> 100	> 100	> 100	> 100	–	> 100	> 100	> 100	> 100	> 100

Reference: PubChem BioAssay (NCI)
